In PubChem BioAssay (NCI) one finds TGI data, which are given here for nine compounds.

Some test systems named below: HOP-18 NSCLC; DLD-1 colon; MCF7 breast; T-47D breast; NCI/ADR-RES ovarian; XF 498 CNS; M19-MEL melanoma; BT-549 breast; MDA-MB-435; RXF-631 renal; DMS 114 small cell lung.
Common to all, as to test: inhibition of tumour cell growth, NCI panel, 48 h

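In this assay, cells in 96-well plates receive the compound at five concentrations for 48 hours. Endpoints are linearly interpolated between the surrounding concentrations. TGI marks complete inhibition of growth.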

With `CS(=O)(=O)Nc1ccc(Nc2c3ccccc3nc3ccccc23)cc1`, the TGI came out at 15 µM in the assay on HOP-18 NSCLC; 24.7 µM in the assay on DLD-1 colon; 13 µM in the assay with MCF7 breast; 21 µM in the assay on T-47D breast; 41.8 µM in the assay on NCI/ADR-RES ovarian; 14.9 µM with XF 498 CNS. Further, the TGI with M19-MEL melanoma was found to be 15 µM; with BT-549 breast it was 39.4 µM; with MDA-MB-435, 33.7 µM; in the assay with RXF-631 renal it was 16.9 µM; with DMS 114 small cell lung, 17 µM.
Turning to `CCOC(=O)c1cn(Cc2ccccc2)c(=O)n1Cc1ccccc1`, the TGI in the assay on HOP-18 NSCLC, with DLD-1 colon, in the assay on XF 498 CNS, with M19-MEL melanoma, in the assay with RXF-631 renal and with DMS 114 small cell lung was more than 100 µM in each case.
For `CCOC(=O)/C(=C/c1ccc(C#N)cc1)N(CC)CC`, the TGI with HOP-18 NSCLC, in the assay with DLD-1 colon, in the assay on XF 498 CNS, in the assay on M19-MEL melanoma, in the assay on RXF-631 renal and with DMS 114 small cell lung was more than 100 µM each time.
For `CC1=C(C(=O)Nc2ccc(Cl)c(Cl)c2)C(c2ccco2)C(C(=O)Nc2ccc(Cl)c(Cl)c2)=C(C)N1`, the TGI in the assay with HOP-18 NSCLC stood at 26.7 µM; in the assay with DLD-1 colon, 23.4 µM; in the assay on XF 498 CNS, 7.94 µM; with M19-MEL melanoma, 24.9 µM; with RXF-631 renal, 46 µM; with DMS 114 small cell lung, 22.2 µM.
Regarding `CN(C)CC1(C)CC/C(=C\c2ccccc2)C1=O` (centres undefined), the TGI in the assay on HOP-18 NSCLC, in the assay on DLD-1 colon, with XF 498 CNS, in the assay on M19-MEL melanoma, with RXF-631 renal and in the assay with DMS 114 small cell lung was more than 100 µM in each case.
As for `COc1ccc(C(c2c(O)c3ccccc3n(C)c2=O)c2c(O)c3ccccc3n(C)c2=O)cc1`, the TGI in the assay with HOP-18 NSCLC, in the assay on DLD-1 colon, with XF 498 CNS, in the assay with M19-MEL melanoma, in the assay with RXF-631 renal and in the assay with DMS 114 small cell lung was more than 100 µM each time.
Regarding `N#CCCN(c1ccc(-c2nnc(NC(=O)CNNC(=O)CC(=O)Nc3ccccc3)s2)cc1)S(=O)(=O)c1ccccc1`, the TGI in the assay on HOP-18 NSCLC, in the assay on DLD-1 colon, with XF 498 CNS, with M19-MEL melanoma, in the assay with RXF-631 renal and in the assay on DMS 114 small cell lung was more than 100 µM in each case.
`COc1ccc(/C=C2\CCC(C)(CN(C)C)C2=O)cc1` (centres undefined): the TGI with HOP-18 NSCLC, in the assay with DLD-1 colon, in the assay with XF 498 CNS, with M19-MEL melanoma, in the assay on RXF-631 renal and in the assay with DMS 114 small cell lung was more than 100 µM throughout.
Take `CC1=C(C(=O)NCc2ccccc2)C(c2ccccc2[N+](=O)[O-])C(C(=O)NCc2ccccc2)=C(C)N1`: the TGI in the assay with HOP-18 NSCLC is 35.1 µM; in the assay with DLD-1 colon it was 20.3 µM; in the assay on XF 498 CNS it was 31.9 µM; with M19-MEL melanoma it was 23.9 µM; in the assay on RXF-631 renal, 29.2 µM; in the assay with DMS 114 small cell lung, 29.8 µM.
